Converted amounts (≈) assume the structure as drawn.
How the values were obtained:
Format in all cases: functional
Helicobacter pylori [1] = experiment: In vitro antibacterial activity against Helicobacter pylori (No. 7)
Helicobacter pylori [2] = experiment: In vitro antibacterial activity against Helicobacter pylori (NCTC 11637)
Helicobacter pylori [3] = experiment: In vitro antibacterial activity against Helicobacter pylori (CPY 2052)
Helicobacter pylori [4] = experiment: Antibacterial activity against Helicobacter pylori (No. 7)
Helicobacter pylori [5] = experiment: Antibacterial activity against Helicobacter pylori (CPY 2052)
Helicobacter pylori [6] = experiment: Antibacterial activity against Helicobacter pylori (NCTC 11637)

MIC (Helicobacter pylori [1]) [µg/mL]	MIC (Helicobacter pylori [2]) [µg/mL]	MIC (Helicobacter pylori [3]) [µg/mL]	MIC (Helicobacter pylori [4]) [µg/mL]	MIC (Helicobacter pylori [5]) [µg/mL]	MIC (Helicobacter pylori [6]) [µg/mL]	SMILES
1.56 (≈ 3.33 µM)	25 (≈ 53.3 µM)	1.56 (≈ 3.33 µM)				CC(C)=CCC/C(C)=C/CCC(=CCCC(C)=CCO)C/N=C(\S)NCCc1ccccc1
			6.25 (≈ 20.4 µM)	6.25 (≈ 20.4 µM)	12.5 (≈ 40.8 µM)	CC(C)=CCC/C(C)=C/CC/C(=C/CC/C(C)=C/CO)CO [PLAUNOTOL]

The next lines start with the compound.

SMILES	MIC (Helicobacter pylori [1]) [µg/mL]	MIC (Helicobacter pylori [2]) [µg/mL]	MIC (Helicobacter pylori [3]) [µg/mL]	MIC (Helicobacter pylori [4]) [µg/mL]	MIC (Helicobacter pylori [5]) [µg/mL]	MIC (Helicobacter pylori [6]) [µg/mL]
CC1(C)S[C@@H]2[C@H](NC(=O)[C@H](N)c3ccc(O)cc3)C(=O)N2[C@H]1C(=O)O [AMOXICILLIN]	0.1 (≈ 0.274 µM)	0.025 (≈ 0.0684 µM)	0.05 (≈ 0.137 µM)			
CC(C)=CCC/C(C)=C/CC/C(=C/CC/C(C)=C/C/N=C(\S)NCCc1ccccc1)CO	≤ 0.1	≤ 0.1	≤ 0.1			
CC(C)=CCC/C(C)=C/CC/C(=C/CC/C(C)=C/C/N=C(\S)NCCc1ccccc1)C/N=C(\S)NCCc1ccccc1	6.25 (≈ 9.9 µM)	6.25 (≈ 9.9 µM)	0.78 (≈ 1.24 µM)			

From ChEMBL document CHEMBL1131705, “A highly stereoselective synthesis of plaunotol and its thiourea derivatives as potent antibacterial agents against Helicobacter pylori” (1999)
